Tested on: PT22AV
Test: Minimum inhibitory concentration of fungicides in NYDA agar
Conditions: resistance level of PT22AV to the fungicide

Compound: N#Cc1c[nH]cc1-c1cccc2c1OC(F)(F)O2 [Fludioxonil]
- Resistance level: Resistant
